Assay results from the supplement of paper PMC9663587.

compound: CCN1CCN(Cc2ccc(Nc3ncc(F)c(-c4cc(F)c5nc(C)n(C(C)C)c5c4)n3)nc2)CC1; assay: GR value, 72 h; higher = faster growth (1 = untreated, <0 = killing); conditions: 0.1 µM;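 note: breast cancer and non-malignant breast epithelial lines, nine half-log doses, viable cells counted by Hoechst and LIVE/DEAD dye imaging versus time-zero plates and DMSO controls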

Cell Line	GR value
PDX1328	0.266 GR

same assay, conditions: 0.3162 µM

Cell Line	GR value
184A1	0.13 GR
AU565	0.223 GR
HCC1187	1 GR
HTERT_HME1	0.433 GR
PDX1328	0.301 GR

same assay, conditions: 1 µM

Cell Line	GR value
184A1	0.0708 GR
AU565	0.114 GR
HCC1187	0.849 GR
HTERT_HME1	0.279 GR
PDX1328	0.263 GR

same assay, conditions: 3.162 µM

Cell Line	GR value
184A1	0.0774 GR
AU565	0.0465 GR
HCC1187	0.69 GR
HTERT_HME1	0.136 GR
PDX1328	0.176 GR

same assay, conditions: 10 µM

Cell Line	GR value
184A1	-0.105 GR
AU565	-0.328 GR
HCC1187	0.297 GR
HTERT_HME1	0.0346 GR
PDX1328	-0.621 GR

compound: CCc1cnn2c(NCc3ccc[n+]([O-])c3)cc(N3CCCC[C@H]3CCO)nc12; assay: as above; conditions: 0.0001 µM

Cell Line	GR value
184A1	1.04 GR
AU565	0.954 GR
HCC1187	0.988 GR
HTERT_HME1	1.08 GR
PDX1328	1.05 GR

same assay, conditions: 0.0003162 µM

Cell Line	GR value
184A1	1.05 GR
AU565	0.978 GR
HCC1187	1 GR
HTERT_HME1	1.07 GR
PDX1328	1.11 GR

same assay, conditions: 0.001 µM

Cell Line	GR value
184A1	1.04 GR
AU565	0.974 GR
HCC1187	1.08 GR
HTERT_HME1	1.1 GR
PDX1328	1.06 GR

same assay, conditions: 0.003162 µM

Cell Line	GR value
184A1	0.865 GR
AU565	0.928 GR
HCC1187	0.985 GR
HTERT_HME1	1.09 GR
PDX1328	1.05 GR

same assay, conditions: 0.01 µM

Cell Line	GR value
184A1	0.401 GR
AU565	0.19 GR
HCC1187	0.471 GR
HTERT_HME1	0.754 GR
PDX1328	0.907 GR

same assay, conditions: 0.03162 µM

Cell Line	GR value
184A1	-0.275 GR
AU565	-0.568 GR
HCC1187	-0.689 GR
HTERT_HME1	-0.268 GR
PDX1328	-0.453 GR

same assay, conditions: 0.1 µM

Cell Line	GR value
184A1	-0.222 GR
AU565	-0.734 GR
HCC1187	-0.797 GR
HTERT_HME1	-0.267 GR
PDX1328	-0.581 GR

same assay, conditions: 0.3162 µM

Cell Line	GR value
184A1	-0.306 GR
AU565	-0.746 GR
HCC1187	-0.791 GR
HTERT_HME1	-0.27 GR
PDX1328	-0.571 GR

same assay, conditions: 1 µM

Cell Line	GR value
184A1	-0.346 GR
AU565	-0.767 GR
HCC1187	-0.761 GR
HTERT_HME1	-0.28 GR
PDX1328	-0.53 GR

compound: CN(C)C(=O)c1cc2cnc(Nc3ccc(N4CCNCC4)cn3)nc2n1C1CCCC1 [LEE011/Ribociclib]; assay: as above; conditions: 0.001 µM

Cell Line	GR value
184A1	0.846 GR
AU565	0.82 GR
HCC1187	1.01 GR
HTERT_HME1	0.864 GR
MCF10A (GM)	0.925 GR
PDX1206	0.899 GR
PDX1328	0.927 GR

same assay, conditions: 0.003162 µM

Cell Line	GR value
184A1	0.792 GR
AU565	0.739 GR
HCC1187	0.914 GR
HTERT_HME1	0.776 GR
MCF10A (GM)	0.95 GR
PDX1206	0.915 GR
PDX1328	0.816 GR

same assay, conditions: 0.01 µM

Cell Line	GR value
184A1	0.664 GR
AU565	0.645 GR
HCC1187	0.863 GR
HTERT_HME1	0.741 GR
MCF10A (GM)	0.906 GR
PDX1206	0.885 GR
PDX1328	0.661 GR

same assay, conditions: 0.03162 µM

Cell Line	GR value
184A1	0.633 GR
AU565	0.742 GR
HCC1187	1.02 GR
HTERT_HME1	0.737 GR
MCF10A (GM)	0.892 GR
PDX1206	0.915 GR
PDX1328	0.649 GR

same assay, conditions: 0.1 µM

Cell Line	GR value
184A1	0.549 GR
AU565	0.569 GR
HCC1187	0.922 GR
HTERT_HME1	0.623 GR
MCF10A (GM)	0.859 GR
PDX1206	0.758 GR
PDX1328	0.481 GR

same assay, conditions: 0.3162 µM

Cell Line	GR value
184A1	0.552 GR
AU565	0.546 GR
HCC1187	0.984 GR
HTERT_HME1	0.568 GR
MCF10A (GM)	0.823 GR
PDX1206	0.817 GR
PDX1328	0.514 GR

same assay, conditions: 1 µM

Cell Line	GR value
184A1	0.446 GR
AU565	0.487 GR
HCC1187	0.933 GR
HTERT_HME1	0.538 GR
MCF10A (GM)	0.808 GR
PDX1206	0.998 GR
PDX1328	0.528 GR

same assay, conditions: 3.162 µM

Cell Line	GR value
184A1	0.306 GR
AU565	0.425 GR
HCC1187	0.963 GR
HTERT_HME1	0.467 GR
MCF10A (GM)	0.736 GR
PDX1206	0.753 GR
PDX1328	0.394 GR

same assay, conditions: 10 µM

Cell Line	GR value
184A1	0.11 GR
AU565	0.227 GR
HCC1187	0.933 GR
HTERT_HME1	0.29 GR
MCF10A (GM)	0.525 GR
PDX1206	0.685 GR
PDX1328	0.425 GR

compound: CN(C)C/C=C/C(=O)Nc1ccc(C(=O)N2CCC[C@@H](Nc3ncc(Cl)c(-c4c[nH]c5ccccc45)n3)C2)cc1 [THZ531]; assay: as above; conditions: 0.0001 µM

Cell Line	GR value
184A1	1.01 GR
AU565	0.925 GR
HCC1187	0.932 GR
HTERT_HME1	0.956 GR
MCF10A (GM)	1 GR
PDX1206	1.14 GR
PDX1328	0.957 GR

same assay, conditions: 0.0003162 µM

Cell Line	GR value
184A1	0.964 GR
AU565	0.936 GR
HCC1187	1.02 GR
HTERT_HME1	0.956 GR
MCF10A (GM)	1 GR
PDX1206	0.992 GR
PDX1328	0.973 GR

same assay, conditions: 0.001 µM

Cell Line	GR value
184A1	0.898 GR
AU565	0.948 GR
HCC1187	0.99 GR
HTERT_HME1	0.939 GR
MCF10A (GM)	0.992 GR
PDX1206	1.01 GR
PDX1328	0.939 GR

same assay, conditions: 0.003162 µM

Cell Line	GR value
184A1	0.954 GR
AU565	0.994 GR
HCC1187	1.04 GR
HTERT_HME1	1.03 GR
MCF10A (GM)	0.983 GR
PDX1206	1.05 GR
PDX1328	1.11 GR

same assay, conditions: 0.01 µM

Cell Line	GR value
184A1	0.931 GR
AU565	1.05 GR
HCC1187	0.976 GR
HTERT_HME1	1.11 GR
MCF10A (GM)	0.997 GR
PDX1206	1.02 GR
PDX1328	0.84 GR

same assay, conditions: 0.03162 µM

Cell Line	GR value
184A1	0.968 GR
AU565	0.786 GR
HCC1187	0.879 GR
HTERT_HME1	1.02 GR
MCF10A (GM)	0.974 GR
PDX1206	0.9 GR
PDX1328	0.788 GR

same assay, conditions: 0.1 µM

Cell Line	GR value
184A1	0.814 GR
AU565	0.0998 GR
HCC1187	-0.437 GR
HTERT_HME1	0.889 GR
MCF10A (GM)	0.926 GR
PDX1206	-0.371 GR
PDX1328	0.153 GR

same assay, conditions: 0.3162 µM

Cell Line	GR value
184A1	0.438 GR
AU565	-0.343 GR
HCC1187	-0.852 GR
HTERT_HME1	0.179 GR
MCF10A (GM)	0.707 GR
PDX1206	-0.273 GR
PDX1328	-0.45 GR

same assay, conditions: 1 µM

Cell Line	GR value
184A1	-0.377 GR
AU565	-0.521 GR
HTERT_HME1	-0.207 GR
MCF10A (GM)	-0.276 GR
PDX1206	-0.29 GR
PDX1328	-0.532 GR

compound: CN1CC[C@H](c2c(O)cc(O)c3c(=O)cc(-c4ccccc4Cl)oc23)[C@H](O)C1 [Flavopiridol]; assay: as above; conditions: 0.0001 µM

Cell Line	GR value
184A1	1.04 GR
AU565	1.11 GR
HCC1187	0.966 GR
HTERT_HME1	1 GR
MCF10A (GM)	1 GR
PDX1206	1.09 GR
PDX1328	1.06 GR

same assay, conditions: 0.0003162 µM

Cell Line	GR value
184A1	1 GR
AU565	1.02 GR
HCC1187	0.963 GR
HTERT_HME1	0.975 GR
MCF10A (GM)	1.01 GR
PDX1206	0.867 GR
PDX1328	1.06 GR

same assay, conditions: 0.001 µM

Cell Line	GR value
184A1	1.01 GR
AU565	0.906 GR
HCC1187	0.368 GR
HTERT_HME1	0.942 GR
MCF10A (GM)	1.01 GR
PDX1206	0.803 GR
PDX1328	0.963 GR

same assay, conditions: 0.003162 µM

Cell Line	GR value
184A1	0.931 GR
AU565	0.852 GR
HCC1187	1 GR
HTERT_HME1	0.876 GR
MCF10A (GM)	0.996 GR
PDX1206	0.812 GR
PDX1328	0.955 GR

same assay, conditions: 0.01 µM

Cell Line	GR value
184A1	0.838 GR
AU565	1 GR
HCC1187	0.995 GR
HTERT_HME1	0.892 GR
MCF10A (GM)	0.962 GR
PDX1206	1.03 GR
PDX1328	1.01 GR

same assay, conditions: 0.03162 µM

Cell Line	GR value
184A1	0.614 GR
AU565	0.858 GR
HCC1187	0.961 GR
HTERT_HME1	0.806 GR
MCF10A (GM)	0.842 GR
PDX1206	0.485 GR
PDX1328	1.08 GR

same assay, conditions: 0.1 µM

Cell Line	GR value
184A1	0.0558 GR
AU565	0.472 GR
HCC1187	0.805 GR
HTERT_HME1	0.536 GR
MCF10A (GM)	0.557 GR
PDX1206	0.393 GR
PDX1328	0.909 GR

same assay, conditions: 0.3162 µM

Cell Line	GR value
184A1	-0.172 GR
AU565	-0.198 GR
HCC1187	-0.16 GR
HTERT_HME1	0.155 GR
MCF10A (GM)	-0.244 GR
PDX1206	-0.402 GR
PDX1328	0.239 GR

same assay, conditions: 1 µM

Cell Line	GR value
184A1	-0.307 GR
AU565	-0.69 GR
HCC1187	-0.885 GR
HTERT_HME1	-0.408 GR
MCF10A (GM)	-0.319 GR
PDX1206	-0.571 GR
PDX1328	-0.603 GR
